Results on 9 compounds are retold here after PubChem BioAssay (NCI).

Where “and” joins values, the source holds several entries; their conditions need not be identical. Equal values may be shown once.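 Values below derive from 48-hour exposures of cells grown in 96-well plates, with endpoints linearly interpolated between the two concentrations bracketing the appropriate inhibition level. GI50 is the concentration that inhibits growth by half. TGI is the concentration that stops growth completely.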 Some results are limits rather than exact numbers.

Test systems include 786-0 renal; A498 renal; A549 NSCLC; COLO 205 colon; HL-60(TB) leukemia; HOP-62 NSCLC; HS 578T breast; M14 melanoma; NCI-H23 lung; NCI-H460 lung; NCI/ADR-RES ovarian; OVCAR-8 ovarian; SK-MEL-28 melanoma; SNB-75 CNS; U251 CNS.
Holding throughout (test): NCI-60 cell line screen, 48 h

Turning to `CCOC(=O)c1c2ccccc2n2c(=O)n(C)nnc12`, the TGI in the assay with 786-0 renal, in the assay on A498 renal, in the assay on A549 NSCLC, in the assay on COLO 205 colon, with HL-60(TB) leukemia and in the assay with HOP-62 NSCLC was over 100 µM each time. Besides, the TGI in the assay on HS 578T breast, with M14 melanoma, in the assay with NCI-H23 lung, in the assay on NCI-H460 lung, in the assay with NCI/ADR-RES ovarian and in the assay on OVCAR-8 ovarian was over 100 µM in each case. The TGI in the assay on SK-MEL-28 melanoma, in the assay on SNB-75 CNS and with U251 CNS was over 100 µM throughout.
In the case of `N#C/C(=C\N1CCNC1=S)C(=O)c1ccc2ccccc2c1`, the TGI in the assay on 786-0 renal, in the assay with A498 renal, with A549 NSCLC, in the assay with COLO 205 colon, with HL-60(TB) leukemia and with HOP-62 NSCLC was over 100 µM each time. Also, the TGI with HS 578T breast, with M14 melanoma, in the assay with NCI-H23 lung, in the assay with NCI-H460 lung, with NCI/ADR-RES ovarian and with OVCAR-8 ovarian was over 100 µM throughout. Further, the TGI in the assay on SK-MEL-28 melanoma, with SNB-75 CNS and in the assay with U251 CNS was over 100 µM each time.
With `Cc1nc(SCC(=O)Nc2ccccc2)c2sc(=S)n(-c3ccccc3)c2n1`, the TGI in the assay with 786-0 renal, with A498 renal, in the assay on A549 NSCLC, in the assay with COLO 205 colon, with HL-60(TB) leukemia and in the assay with HOP-62 NSCLC was over 10 µM throughout. Besides, the TGI in the assay with HS 578T breast, in the assay with M14 melanoma, in the assay with NCI-H23 lung, in the assay with NCI-H460 lung, with NCI/ADR-RES ovarian and with OVCAR-8 ovarian was over 10 µM throughout. The TGI in the assay on SK-MEL-28 melanoma, in the assay on SNB-75 CNS and with U251 CNS was over 10 µM throughout.
For `CNNC1=NS(=O)(=O)c2cc(C(=O)OC)c(Cl)cc2S1`, the TGI in the assay on 786-0 renal, with A498 renal, in the assay on A549 NSCLC, with COLO 205 colon, in the assay with HL-60(TB) leukemia and in the assay with HOP-62 NSCLC was over 10 µM throughout. Besides, the TGI with HS 578T breast, in the assay on M14 melanoma, with NCI-H23 lung, with NCI-H460 lung, in the assay on NCI/ADR-RES ovarian and with OVCAR-8 ovarian was over 10 µM in each case. Further, the TGI in the assay on SK-MEL-28 melanoma, in the assay on SNB-75 CNS and in the assay on U251 CNS was over 10 µM each time.
On to `COc1ccc(-c2c(N)n(-c3cc(OC)cc(OC)c3)c(=O)c3cc([N+](=O)[O-])ccc23)cc1`, for which the TGI in the assay with 786-0 renal was over 100 µM; in the assay with A498 renal, 98.5 µM; in the assay with A549 NSCLC it was over 100 µM; with COLO 205 colon, over 100 µM; in the assay on HL-60(TB) leukemia it was over 100 µM; in the assay with HOP-62 NSCLC it was over 100 µM. In addition, the TGI in the assay with HS 578T breast, in the assay with M14 melanoma, in the assay with NCI-H23 lung, with NCI-H460 lung, with NCI/ADR-RES ovarian and in the assay on OVCAR-8 ovarian was over 100 µM in each case. Moreover, the TGI with SK-MEL-28 melanoma, in the assay with SNB-75 CNS and in the assay on U251 CNS was over 100 µM in each case.
In the case of `COC(=O)C1=C(O)C(C(=O)OC)[C@@]2(O)[C@@H](C(=O)OC)C(c3ccc(OC(=O)/C(=C/c4ccccc4)c4ccccc4)cc3)C[C@@H]1[C@@H]2C(=O)OC` (stereo partly drawn), the TGI was over 100 µM in the assay with 786-0 renal; 96.4 µM with A498 renal; over 100 µM in the assay on A549 NSCLC; over 100 µM in the assay with COLO 205 colon; over 100 µM in the assay on HL-60(TB) leukemia; over 100 µM with HOP-62 NSCLC. The TGI in the assay with HS 578T breast is over 100 µM; in the assay with M14 melanoma, 33 µM; in the assay with NCI-H23 lung, over 100 µM; in the assay with NCI-H460 lung, over 100 µM; with NCI/ADR-RES ovarian, over 100 µM; in the assay on OVCAR-8 ovarian, over 100 µM. The TGI with SK-MEL-28 melanoma is over 100 µM; in the assay with SNB-75 CNS, 35.6 µM; with U251 CNS, over 100 µM.
`COc1cccc(N2CCc3c(C)c(C#N)c4nc5ccccc5n4c32)c1`: the TGI in the assay on 786-0 renal, with A498 renal, in the assay on A549 NSCLC, in the assay with COLO 205 colon, with HL-60(TB) leukemia and in the assay with HOP-62 NSCLC was over 100 µM throughout. Besides, the TGI was 60.7 µM in the assay on HS 578T breast; over 100 µM in the assay with M14 melanoma; over 100 µM in the assay on NCI-H23 lung; over 100 µM in the assay on NCI-H460 lung; over 100 µM in the assay on NCI/ADR-RES ovarian; over 100 µM with OVCAR-8 ovarian. The TGI in the assay on SK-MEL-28 melanoma, with SNB-75 CNS and in the assay with U251 CNS was over 100 µM in each case.
`CC(=O)OCC1OC(Sc2nc(-c3ccc(C)cc3)c(C#N)c(=O)n2C2OC(COC(C)=O)C(OC(C)=O)C(OC(C)=O)C2OC(C)=O)C(OC(C)=O)C(OC(C)=O)C1OC(C)=O` (stereo not drawn): the TGI in the assay with 786-0 renal is over 100 µM; with A498 renal it was over 100 µM; with A549 NSCLC, over 100 µM; in the assay on COLO 205 colon it was over 100 µM; with HL-60(TB) leukemia, 76.6 µM; with HOP-62 NSCLC, over 100 µM. For the same compound, the TGI with HS 578T breast, in the assay on M14 melanoma, in the assay with NCI-H23 lung, in the assay on NCI-H460 lung, in the assay on NCI/ADR-RES ovarian and in the assay with OVCAR-8 ovarian was over 100 µM throughout. For the same compound, the TGI in the assay on SK-MEL-28 melanoma, in the assay with SNB-75 CNS and with U251 CNS was over 100 µM throughout. For the same compound, the GI50 is > 100 µM and 10.3 µM in the assay on COLO 205 colon; 25.5 µM with HL-60(TB) leukemia; > 100 µM and 43.3 µM in the assay on M14 melanoma.
As to `S=c1scc(-c2ccc(Cl)cc2)n1OC1CCCC1`, the TGI in the assay on 786-0 renal was over 100 µM; in the assay on A498 renal it was 79.8 µM; in the assay on A549 NSCLC it was over 100 µM; in the assay with COLO 205 colon, 26.5 µM; in the assay on HL-60(TB) leukemia, 71.3 µM; in the assay on HOP-62 NSCLC, over 100 µM. The TGI in the assay with HS 578T breast, in the assay on M14 melanoma, in the assay with NCI-H23 lung, in the assay with NCI-H460 lung, in the assay with NCI/ADR-RES ovarian and in the assay with OVCAR-8 ovarian was over 100 µM each time. Further, the figures for the TGI with SK-MEL-28 melanoma, with SNB-75 CNS and in the assay with U251 CNS were over 100 µM, over 100 µM and 39.7 µM, respectively.
